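The compound was tested at five concentrations on cells cultured in 96-well plates, with a 48-hour exposure period. At the GI50, growth is halved. At the TGI there is no net growth.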
What was measured:
Experiment in all cases: NCI-60 cell line screen, 48 h
UACC-62 melanoma = tested on: UACC-62 melanoma
SN12C renal = tested on: SN12C renal
EKVX NSCLC = tested on: EKVX NSCLC
NCI-H460 lung = tested on: NCI-H460 lung
NCI/ADR-RES ovarian = tested on: NCI/ADR-RES ovarian
SNB-75 CNS = tested on: SNB-75 CNS
LOX IMVI melanoma = tested on: LOX IMVI melanoma
OVCAR-3 ovarian = tested on: OVCAR-3 ovarian
M14 melanoma = tested on: M14 melanoma
SK-MEL-5 melanoma = tested on: SK-MEL-5 melanoma
HCC-2998 colon = tested on: HCC-2998 colon
SK-OV-3 ovarian = tested on: SK-OV-3 ovarian
NCI-H23 lung = tested on: NCI-H23 lung
OVCAR-5 ovarian = tested on: OVCAR-5 ovarian
SF-268 CNS = tested on: SF-268 CNS
CAKI-1 renal = tested on: CAKI-1 renal
MCF7 breast = tested on: MCF7 breast
KM12 colon = tested on: KM12 colon
SW-620 colon = tested on: SW-620 colon
NCI-H522 lung = tested on: NCI-H522 lung
UACC-257 melanoma = tested on: UACC-257 melanoma
COLO 205 colon = tested on: COLO 205 colon
HOP-92 NSCLC = tested on: HOP-92 NSCLC
SK-MEL-28 melanoma = tested on: SK-MEL-28 melanoma
SNB-19 CNS = tested on: SNB-19 CNS
PC-3 prostate = tested on: PC-3 prostate
SK-MEL-2 melanoma = tested on: SK-MEL-2 melanoma
RPMI-8226 leukemia = tested on: RPMI-8226 leukemia
HOP-62 NSCLC = tested on: HOP-62 NSCLC

N#CC(C#N)=C/C=C(\Sc1ccc(F)c(Cl)c1)c1ccc(Cl)cc1
GI50 (UACC-62 melanoma): 2430 nM | TGI (UACC-62 melanoma): 11.5 µM | GI50 (SN12C renal): 669 nM | TGI (SN12C renal): 1930 nM | GI50 (EKVX NSCLC): 14.5 µM | TGI (EKVX NSCLC): 39.5 µM | GI50 (NCI-H460 lung): 5.24 µM | TGI (NCI-H460 lung): 22.7 µM | GI50 (NCI/ADR-RES ovarian): 1110 nM | TGI (NCI/ADR-RES ovarian): 4.82 µM | GI50 (SNB-75 CNS): 5.62 µM | TGI (SNB-75 CNS): 16 µM | GI50 (LOX IMVI melanoma): 302 nM | TGI (LOX IMVI melanoma): 1120 nM | GI50 (OVCAR-3 ovarian): 3.99 µM | TGI (OVCAR-3 ovarian): 16.3 µM | GI50 (M14 melanoma): 807 nM | TGI (M14 melanoma): 2530 nM | GI50 (SK-MEL-5 melanoma): 7.22 µM | TGI (SK-MEL-5 melanoma): 19.4 µM | GI50 (HCC-2998 colon): 5.71 µM | TGI (HCC-2998 colon): 17.8 µM | GI50 (SK-OV-3 ovarian): 15.8 µM | TGI (SK-OV-3 ovarian): > 41.1 µM | GI50 (NCI-H23 lung): 1140 nM | TGI (NCI-H23 lung): 5.64 µM | GI50 (OVCAR-5 ovarian): 2930 nM | TGI (OVCAR-5 ovarian): 24.6 µM | GI50 (SF-268 CNS): 2520 nM | TGI (SF-268 CNS): 17.8 µM | GI50 (CAKI-1 renal): 1770 nM | TGI (CAKI-1 renal): 12.1 µM | GI50 (MCF7 breast): 1250 nM | TGI (MCF7 breast): 26.7 µM | GI50 (KM12 colon): 2740 nM | TGI (KM12 colon): 13.1 µM | GI50 (SW-620 colon): 494 nM | TGI (SW-620 colon): 5.74 µM | GI50 (NCI-H522 lung): 1800 nM | TGI (NCI-H522 lung): 7.71 µM | GI50 (UACC-257 melanoma): 6.68 µM | TGI (UACC-257 melanoma): 19.5 µM | GI50 (COLO 205 colon): 2580 nM | TGI (COLO 205 colon): > 21.3 µM | GI50 (HOP-92 NSCLC): 947 nM | TGI (HOP-92 NSCLC): 6.91 µM | TGI (SK-MEL-28 melanoma): 3.53 µM | GI50 (SNB-19 CNS): 5.48 µM | TGI (SNB-19 CNS): 28.2 µM | GI50 (PC-3 prostate): 787 nM | TGI (PC-3 prostate): 7.1 µM | GI50 (SK-MEL-2 melanoma): 7.01 µM | TGI (SK-MEL-2 melanoma): 23.9 µM | GI50 (RPMI-8226 leukemia): 271 nM | TGI (RPMI-8226 leukemia): 967 nM | GI50 (HOP-62 NSCLC): 1520 nM | TGI (HOP-62 NSCLC): 5.78 µM

Reference: PubChem BioAssay (NCI)
